91 molecules from a melting point compilation (Tetko et al.; mined from patent text by program, amines drawn as free bases though some values may be those of a salt) can be followed below.

The structures appear in SMILES notation.

As usually defined, the melting point is the temperature of the solid-liquid transition.

On to `COc1cc([N+](=O)[O-])c(CCCCC(=O)O)c([N+](=O)[O-])c1O`, for which the melting point is 168 to 170 °C.

For the molecule `CN(C(=S)N[C@@H](Cc1ccc(NC(=O)c2c(Cl)cncc2Cl)cc1)C(=O)O)c1ccccc1Cc1ccccc1`, the melting point was found to be 198 °C.

Take `CCOC(=O)c1cc(C)n(-c2cccc(Br)c2)c1-c1ccccc1`: the melting point was in the range of 118 to 119 °C.

`CN1CCN(c2c(F)c(N)c3c(=O)c(C(=O)O)cn(C4CC4)c3c2F)CC1` returned a melting point of 247 to 248 °C.

`O=C(Nc1ccc2ccc(-c3ccc(F)cc3)nc2n1)c1ccc(C(F)(F)F)cc1` yielded a melting point of 198 °C.

Molecule `CC(C)(C)c1ccc(C(=O)Nc2cn3cc(-n4ccnc4)ccc3n2)cc1` displayed a melting point of 289 to 291 °C.

Take `Cc1ccc(-c2cnc(N)c([N+](=O)[O-])c2)cc1`: the melting point is 183 to 184 °C.

Molecule `OC[C@H]1CCCN1c1nc2c(-c3nc(C4CC4)no3)ncn2c2cccc(Cl)c12` yielded a melting point of 220 to 221 °C.

`CS(=O)(=O)c1ccc(C(CC2CCCC2)C(=O)Nc2ccccn2)cc1C#N` (stereo unspecified) yielded a melting point of 87 to 90 °C.

Take `CCNc1c(C(=O)OCC)c(C)nc2c1nnn2CC`: the melting point fell in the range of 60 to 61 °C.

In turn, `COC(=O)CC(c1ccc(F)cc1)C(C#N)C(=O)OC` (stereo unspecified) displayed a melting point of 80.2 °C.

In turn, `Cc1nc(C)c(C(C)(O)c2ccccc2)s1` (stereo unspecified) registered a melting point of 131 to 132 °C.

Take `COc1ccc2c(c1)c(Cc1cc(=O)n(-c3ccc(C(F)(F)F)cc3)[nH]1)c(C)n2C(=O)c1ccc(Cl)cc1`: the melting point was in the range of 180 to 182 °C.

For `C(=Cc1ccccc1)C=NC1CCOc2ccccc21` (stereo unspecified), the melting point fell in the range of 106 to 107 °C.

The molecule `CC(C)(C)OC(=O)N1CCO[C@@H](c2ccc(Br)cc2)C1` showed a melting point of 97.2 °C.

For `CC(C)(C)OC(=O)N1CCC(=O)N1c1ccc2ccccc2n1`, the melting point was found to be 112 °C.

Turning to `O=C1C(=O)N2CCSc3cc(Br)cc1c32`, the melting point turned out to be 196 °C.

In turn, `COC(=O)c1ccc(Cn2nc(OCc3ccccc3)c3ccc(NC(=O)CC4CCCC4)cc32)c(OC)c1` showed a melting point of 139 to 140 °C.

In turn, `Clc1ccc(Nc2nnc(OCc3ccncc3)c3ccccc23)cc1` had a melting point of 139 to 141 °C.

In turn, `CSc1nnc(-c2cc3c([nH]c2=O)CCN(Cc2ccccc2)C3)o1` returned a melting point of 215 to 217 °C.

Turning to `COC(=O)/C=C/C#Cc1cccc(S(=O)(=O)Nc2ccccc2)c1`, the melting point fell in the range of 134 to 136 °C.

`O=C1CC(NC(=O)c2c[nH]c3ccccc23)CCCN1` (stereo unspecified) had a melting point of 243 to 244 °C.

Take `Cc1nc2sccn2c(=O)c1CCN1CCC(=C(c2ccc(F)cc2)c2ccc(F)cc2)CC1`: the melting point is 146 °C.

`COc1cc2c(cc1OC)CN(CC(O)COc1ccc(N)cc1)CC2` (stereo unspecified) registered a melting point of 106 °C.

In turn, `CCOc1cc(C(=O)N2CCC(CCN3CCC(C(N)=O)(c4ccccc4)CC3)(c3ccc(OC)c(OC)c3)C2)cc(OCC)c1OCC` (stereo unspecified) gave a melting point of 139 to 141 °C.

`CCn1cc(C(=O)O)c(=O)c2cc(F)c(N3CC(C)C(CN)C3)c(F)c21` (stereo unspecified): the melting point lay in the range of 222 to 224 °C.

As for `Cc1cc(O)n2ncc([N+](=O)[O-])c2n1`, the melting point stood at 290 °C.

Take `CC(c1nnc2c(=O)[nH]c3cc(C(F)(F)F)c(Br)cc3n12)P(=O)(O)O` (stereo unspecified): the melting point is above 300 °C.

As to `CCOC(=O)c1c(NC(C)=O)cccc1C(C)=O`, the melting point came to 88 °C.

In turn, `CN(C)Cc1ccc(CNCCN2CCNC2=C(C#N)C#N)o1` showed a melting point of 159 to 160 °C.

Take `CSC1(SC)C(=O)CC2C3CCC4=CC(=O)C=CC4(C)C3(F)C(OC(C)=O)CC21C` (stereo unspecified): the melting point lay in the range of 225 to 227 °C.

Consider `CCCCCCCCCCCCCCCCCC(O)c1ccc(O)c(C(=O)O)c1` (stereo unspecified), for which the melting point is 102 °C.

Regarding `CC(C)(C)OC(=O)NCCCCCCCBr`, the melting point fell in the range of 48 to 49 °C.

`CCOC(=O)C1=C(C)NC(COC(C)=O)=C(C(=O)OCC)C1c1ccccc1` (stereo unspecified) returned a melting point of 104 to 106 °C.

`C(=C1CCC2(CC1)OCCO2)c1ccc(OCc2ccccc2)cc1`: the melting point was 56 to 57 °C.

With `CC(=O)OCC(C(OC(C)=O)c1ccc([N+](=O)[O-])cc1)[N+](=O)[O-]` (stereo unspecified), the melting point was 63 to 66 °C.

For `CCOC(=O)c1cc(CC(C)(C)NC(=O)OC(C)(C)C)n(CCOC)n1`, the melting point is 92 to 93 °C.

`COc1nc(CC(=O)OC(C)(C)C)c([N+](=O)[O-])cc1C` registered a melting point of 71 to 72.5 °C.

In turn, `CNC(=O)[C@@H]1CCCCN1S(=O)(=O)c1ccc(Cl)c(COc2cccc3c(-n4ccnc4)cc(C)nc23)c1Cl` had a melting point of 74 °C.

Take `Nc1cc(-n2nnn(CCCF)c2=O)c(F)cc1Cl`: the melting point is 84 °C.

On to `CC(CN(C(C)C)C(C)C)N1C(=O)/C(=N/NC(N)=O)c2ccccc21` (stereo unspecified), for which the melting point lay in the range of 195 to 197 °C.

The molecule `Cc1cc(Nc2nccc(N3CCC(C)CC3)n2)[nH]n1` showed a melting point of 193 to 195 °C.

As to `CC(C)n1nc(-c2sc(NC(=O)CNCCO)nc2-c2ccccc2)ccc1=O`, the melting point lay in the range of 142 to 144 °C.

On to `CCS(=O)(=O)c1ccc(C(=O)NCc2ccc3c(c2)C(=O)N(C2CCC(=O)NC2=O)C3=O)cc1` (stereo unspecified), for which the melting point was 182 to 184 °C.

In the case of `COC(=O)c1ccc(-c2ccc(OC)c(OC)c2)cc1OC`, the melting point was 96 to 97.5 °C.

`CC(C)C1=Nc2ccccc2N(C)C(=O)C1N` (stereo unspecified) registered a melting point of 167 to 168 °C.

In turn, `CC(C)OC(N)=C(C#N)C(=N)S` displayed a melting point of 170 °C.

As to `NC(=O)CCCC1(c2ccccc2)CC(O)=CC(=O)O1` (stereo unspecified), the melting point lay in the range of 51 to 54 °C.

As to `C[C@@H](O)[C@H](CN)C(=O)O`, the melting point lay in the range of 120 to 123 °C.

In turn, `Cc1ccc(OCc2ccccc2)c(C(CCN2CC3(C)CC3(C)C2)c2ccccc2)c1` (stereo unspecified) had a melting point of 93 to 95 °C.

`CN(c1cc(=S)ss1)C1CCCCC1`: the melting point turned out to be 107 °C.

For the molecule `CC(C)(C)c1ccc(OCC(N)CO)cc1` (stereo unspecified), the melting point turned out to be 102 °C.

`CSc1cc2cc(C)ccc2cc1C=Cc1cc2ccc(C)cc2cc1SC` yielded a melting point of 185 to 186 °C.

As to `CSc1nc2cccccc-2n1`, the melting point lay in the range of 101 to 102 °C.

In turn, `Cc1nnc(-c2ccnc(NC(=O)NCc3ccccn3)c2)o1` returned a melting point of 202 to 203 °C.

In the case of `O=C(c1cc2ccc(Br)cc2o1)c1cc2ccc(Br)cc2o1`, the melting point is 176 to 177 °C.

As to `COc1ccc(CCNc2nccc(-c3cccc(NC(C)=O)c3)n2)cc1OC`, the melting point was 146 to 148 °C.

Consider `O=C(CCCCBr)NNC(=O)N1Cc2ccccc2Oc2ccc(Cl)cc21`, for which the melting point fell in the range of 147 to 149 °C.

`CC(=NNc1ccc(C2=NNC(=O)CC2)cc1)c1cscn1` displayed a melting point above 300 °C.

With `Cn1cnc(S(=O)(=O)Nc2ccc(OCCN3CCN(c4nsc5ccccc45)CC3)cc2)c1`, the melting point stood at 176 °C.

For the molecule `CC1(C)CC(=O)SC(=NCCCCN2CCN(c3ncccn3)CC2)N1`, the melting point worked out at 148 °C.

For the molecule `CNc1cc(S(=O)(=O)c2ccc(N)cc2)cc(C)n1`, the melting point was in the range of 126 to 127 °C.

As to `O=C(N(C1CCNCC1)C1CC1)N1N=C2c3cc(F)ccc3OC[C@@H]2[C@@H]1c1ccccc1` (racemic), the melting point came out at 142 °C.

The molecule `CCCc1cc2c(c3ccc(O)cc13)OCc1cc(O)ccc1-2` displayed a melting point of 86 to 95 °C.

The molecule `CC1CCc2c(N3CCCC3)ccc3c(=O)c(C(=O)O)cn1c23` (stereo unspecified) displayed a melting point of 170 to 174 °C.

Regarding `CCOC(=O)C1(C(=O)Nc2ccc(Br)cc2C)CCCC1`, the melting point lay in the range of 64 to 67 °C.

`C#Cc1c(C(C)C)cc(-c2ccccc2)nc1-c1ccc(F)cc1` returned a melting point of 121 to 124 °C.

Take `c1ccc(-c2cncc(CN3CCN(c4ccccc4)CC3)c2)cc1`: the melting point lay in the range of 83 to 85 °C.

For `COC(=O)c1cc(CN=[N+]=[N-])cc([N+](=O)[O-])c1`, the melting point was in the range of 44 to 46 °C.

In turn, `CN1C(=O)C(C2=COc3ccccc3O2)=C(c2c[nH]c3cc(F)ccc23)C1=O` showed a melting point of 214 °C.

On to `O=CC1CC(O)c2ccccc2C1O` (stereo unspecified), for which the melting point turned out to be 145 °C.

The molecule `COc1cc(OC)c2c(=O)[nH]c(-c3cc(C)c(OCCN4CCC4)c(C)c3)nc2c1` showed a melting point of 204 to 205 °C.

In the case of `CC(=O)SCCN(CCC1CCCCC1)C(=O)N[C@@H](C)C(=O)O`, the melting point lay in the range of 89.5 to 90.5 °C.

As for `CCN1c2ncc(CCc3ccccc3)cc2C(=O)Nc2c(C)ccnc21`, the melting point is 174 to 175 °C.

`CCOC(=O)c1cc(=O)c2ccc(OCCCCl)cc2o1`: the melting point is 107 to 108 °C.

`O=C(c1ccccc1Cl)c1cc(Cl)cc(Br)c1I` displayed a melting point of 86 to 87 °C.

As to `Cc1cc(=O)c2[nH]nc(C)c2[nH]1`, the melting point was above 346 °C.

With `CC(C)(C)OC(=O)NN1CCC(C(=O)O)CC1`, the melting point lay within 133 to 135 °C.

In turn, `OCC1CCc2ncsc2C1` (stereo unspecified) displayed a melting point of 176 to 182 °C.

Take `CC(NC(=O)OC(C)(C)C)C(=O)NC(C)C(=O)Nc1ccc2c(Cl)c(OCCBr)oc(=O)c2c1` (stereo unspecified): the melting point lay in the range of 147 to 151 °C.

For `Cc1cc(C)c2c(c1)C=C(C(=O)O)CC2`, the melting point was in the range of 194 to 195 °C.

For the molecule `CN1C(=O)N2C(=NC1(C)C)N(C(=O)NC1CCCCC1)c1ccccc12`, the melting point lay within 114 to 116 °C.

For `Cc1ccc(NC(=S)NC(=O)c2ccccc2)c(Cl)c1`, the melting point came to 143 °C.

`Cc1nn(-c2c(Cl)cc(C(F)(F)F)cc2Cl)nc1CN(C)C` showed a melting point of 67 to 68 °C.

Regarding `CC(C)[C@H](NCc1ccc(Br)cc1)C(=O)O`, the melting point lay in the range of 239 to 241 °C.

In the case of `CC(C)CC(Cn1cc(Sc2ccccc2)c2ccccc21)N(O)C(N)=O` (stereo unspecified), the melting point was found to be 57 °C.

Molecule `Cc1oc(-c2ccccc2)nc1CCOc1ccc(C[C@H](NC(=O)C=Cc2cccc(Cl)c2)C(=O)O)cc1` showed a melting point of 204 to 206 °C.

For the molecule `[N-]=[N+]=NC1CC(n2cc(C=CBr)c(=O)[nH]c2=O)OC1CCl` (stereo unspecified), the melting point was 124 to 125 °C.

Regarding `O=C(CCc1ccccc1)c1cccnc1Oc1ccc(F)cc1`, the melting point was 82 to 83 °C.

`Cc1c(O)cc2c(c1C)N(C=O)C(C)C2` (stereo unspecified) showed a melting point of 155 to 159 °C.

With `COC1OCC[C@@H]1NC(=O)[C@H](CC(C)C)NC(=O)[C@H](CC(C)C)NC(=O)OCc1ccccc1` (stereo partly specified), the melting point lay within 76 to 77 °C.
